Measured values reported in patent US4963655A, “Boron analogs of amino acid/peptide protease inhibitors” (Mayo Foundation for Medical Education and Research, priority 1988, dated 1990).

Tests used:
[1] = system: Human melanoma cells (A375); test: Growth Inhibition Assay; assay type: cell-based; details: for Growth Inhibition (%) 24 hr: counted after 24 hr growth; for Growth Inhibition (%) 48 hr: counted after 48 hr growth; for Growth Inhibition (%) 96 hr: counted after 96 hr growth; for % Inhib (growth): 96 h exposure, fresh inhibitor every 24 h; for growth inhibitory activity (in words): other serine protease inhibitors, Table 2
Description: Human melanoma cells (A375) were seeded at 2 ×10^4 cells per tissue culture dish (60×15 mm, Falcon) in Delbecco's Minimal Essential Media (DMEM) containing 10% fetal calf serum and including 1% antibiotics. Cells were allowed to attach for 48 hours prior to exposure to drugs. Cbz-ala-1-borovaline and Cbz-ala-1-borophenylalanine were dissolved in dimethyl sulfoxide (DMSO). The final DMSO concentration in media was 0.5%. Fresh media was exchanged for the media including the drug at appropriate exposure times. Cells were counted after 24, 48 or 96 hours of growth using a Coulter counter. Growth inhibition is expressed as the percent reduction of drug treated cells with respect to untreated control cells.

[2] = system: Human melanoma cells (A375); test: Colony Formation Assay (CFA); assay type: cell-based
Description: Human melanoma cells (A375) were seeded at 500 cells per tissue culture dish and allowed to recover for 48 hours. The drug and media mixture was prepared as described above. Following drug exposure, fresh media were substituted for the drug and media mixture. After 7 days, colonies were stained with 0.25% Coomassie Blue and enumerated. Data are expressed as the percent of colonies present in treated plates with respect to control plates (percent survival).

A375 cells = test: Macromolecular synthesis: protein synthesis ([3H]-leucine incorporation); assay type: cell-based, human; details: 0.075 ug/ml
Description: Protein synthesis was determined by the incorporation of [^3 H]-leucine into protein in viable cells.
Human melanoma (A375) cells were seeded at 1 ×10^5 cells per tissue culture dish 48 hours prior to the addition of the drug (for example, Cbz-ala-1borovaline or Cbz-ala-1-borophenylalanine). The drug and media mixture was prepared as described above. During the last 30 minutes of drug exposure radioactive labeled precursors were added to the media and drug mixture. Specifically, either ^3 H-thymidine (0.2 uCi/ml, to measure DNA synthesis), ^3 H-uridine (0.2 uCi/ml, to measure RNA synthesis, or ^3 H-leucine (1 uCi/ml, to measure protein synthesis) were added. Following 30 minutes at 37° C., the cells were harvested, resuspended in physiological buffered saline (PBS) and the cells counted. An aliquot of the cell suspension was then lysed (10 mM Tris, 1 mM EDTA, 0.1% SDS) and macromolecules were precipitated with ice-cold trichloroacetic acid (TCA) (20%). Following three washes with TCA, radioactivity in the resulting pellet was counted on a Beckman LS2000 Scintillation Counter. Data is expressed as the percentage of counts incorporated into 1×10^6 treated cells as compared to 1×10^6 untreated cells (percent incorporation).

[3] = system: human lung carcinoma (A549) cells; test: Growth and colony formation of A549 cells in culture; assay type: cell-based
Text: Qualitatively similar results were obtained against human lung carcinoma (A549) cells in culture (data not shown). […] The plateau, however, was not observed in association with the analog after the 1-hour (FIG. 3A) or continuous (FIG. 3C) exposure times. A similar plateau was never observed with Cbz-ala-1-borophenylalanine treatment. A plateau was also seen with A549 cells. A growth inhibition assay (Table 1) yielded qualitatively similar results as the colony formation assay.

[4] = system: Lewis lung murine tumor cells; details: Lewis lung murine tumor cells in culture; Goz et al.; cited from earlier work
[5] = system: L1210 murine leukemia cells; test: Growth inhibition of L1210 cells in culture; assay type: cell-based; details: 72-hour exposure, 0.03 uM
Description: Following a 72-hour exposure to 0.03 uM ala-1-borovaline, approximately 50% growth inhibition was observed. The two compounds are also cytotoxic to human tumor cell lines. While not yet fully understood, the mechanism of cytotoxicity is not via macromolecular synthesis inhibition in the human tumor cell lines.

CC(NC(=O)OCc1ccccc1)C(=O)NC(Cc1ccccc1)B(O)O (centres unmarked) [Cbz-ala-1-Borophenylalanine, Cbz-ala-1-borophenylalanine]
growth inhibition ([1]; 0.075 ug/ml, 24-hour exposure): 70% | Growth Inhibition (%) 24 hr ([1]; exposure 1 h, 51.6 uM): 20% | Growth Inhibition (%) 48 hr ([1]; exposure 1 h, 51.6 uM): 41% | Growth Inhibition (%) 96 hr ([1]; exposure 1 h, 51.6 uM): 52% | Growth Inhibition (%) 24 hr ([1]; exposure 1 h, 129 uM): 42% | Growth Inhibition (%) 48 hr ([1]; exposure 1 h, 129 uM): 65% | Growth Inhibition (%) 96 hr ([1]; exposure 1 h, 129 uM): 69% | Growth Inhibition (%) 24 hr ([1]; exposure 24 h, .026 uM): 5% | Growth Inhibition (%) 48 hr ([1]; exposure 24 h, .026 uM): 3% | Growth Inhibition (%) 96 hr ([1]; exposure 24 h, .026 uM): 15% | Growth Inhibition (%) 24 hr ([1]; exposure 24 h, .129 uM): 41% | Growth Inhibition (%) 48 hr ([1]; exposure 24 h, .129 uM): 63% | Growth Inhibition (%) 96 hr ([1]; exposure 24 h, .129 uM): 68% | Growth Inhibition (%) 24 hr ([1]; exposure 24 h, .645 uM): 75% | Growth Inhibition (%) 48 hr ([1]; exposure 24 h, .645 uM): 72% | Growth Inhibition (%) 96 hr ([1]; exposure 24 h, .645 uM): 98% | Growth Inhibition (%) 24 hr ([1]; exposure 96 h, .1239 uM): 38% | Growth Inhibition (%) 48 hr ([1]; exposure 96 h, .1239 uM): 68% | Growth Inhibition (%) 96 hr ([1]; exposure 96 h, .1239 uM): 75% | Growth Inhibition (%) 24 hr ([1]; exposure 96 h, .258 uM): 58% | Growth Inhibition (%) 48 hr ([1]; exposure 96 h, .258 uM): 91% | Growth Inhibition (%) 96 hr ([1]; exposure 96 h, .258 uM): 95% | Colony Formation Inhibition (%) ([2]; exposure 1 h, 51.6 uM): 55% | Colony Formation Inhibition (%) ([2]; exposure 24 h, .026 uM): 10% | Colony Formation Inhibition (%) ([2]; exposure 24 h, .129 uM): 35% | Colony Formation Inhibition (%) ([2]; exposure 24 h, .645 uM): 97% | inhibition of protein synthesis (A375 cells): did not show an acute inhibition of protein synthesis | inhibition of growth and colony formation (in words) [3]: effective inhibitors | cytotoxicity (in words) [4]: modest activity

CC(NC(=O)OCc1ccccc1)C(=O)NC(B(O)O)C(C)C (centres unmarked) [Cbz-ala-1-Borovaline, Cbz-ala-1-borovaline]
Growth Inhibition (%) 24 hr ([1]; exposure 1 h, 7.36 uM): 14% | Growth Inhibition (%) 48 hr ([1]; exposure 1 h, 7.36 uM): 33% | Growth Inhibition (%) 96 hr ([1]; exposure 1 h, 7.36 uM): 46% | Growth Inhibition (%) 24 hr ([1]; exposure 1 h, 29.43 uM): 23% | Growth Inhibition (%) 48 hr ([1]; exposure 1 h, 29.43 uM): 48% | Growth Inhibition (%) 96 hr ([1]; exposure 1 h, 29.43 uM): 73% | Growth Inhibition (%) 24 hr ([1]; exposure 24 h, 1.47 uM): 61% | Growth Inhibition (%) 48 hr ([1]; exposure 24 h, 1.47 uM): 88% | Growth Inhibition (%) 96 hr ([1]; exposure 24 h, 1.47 uM): 93% | Growth Inhibition (%) 24 hr ([1]; exposure 24 h, .003 uM): 5% | Growth Inhibition (%) 48 hr ([1]; exposure 24 h, .003 uM): 5% | Growth Inhibition (%) 96 hr ([1]; exposure 24 h, .003 uM): 14% | Growth Inhibition (%) 24 hr ([1]; exposure 24 h, .029 uM): 17% | Growth Inhibition (%) 48 hr ([1]; exposure 24 h, .029 uM): 50% | Growth Inhibition (%) 96 hr ([1]; exposure 24 h, .029 uM): 68% | Growth Inhibition (%) 24 hr ([1]; exposure 96 h, .029 uM): 21% | Growth Inhibition (%) 48 hr ([1]; exposure 96 h, .029 uM): 51% | Growth Inhibition (%) 96 hr ([1]; exposure 96 h, .029 uM): 68% | Growth Inhibition (%) 24 hr ([1]; exposure 96 h, .736 uM): 53% | Growth Inhibition (%) 48 hr ([1]; exposure 96 h, .736 uM): 78% | Growth Inhibition (%) 96 hr ([1]; exposure 96 h, .736 uM): 89% | inhibition of colony formation, comparison of potency (in words) ([2]; FIG. 3): more potent inhibitor of colony formation than was Cbz-ala-1-borophenylalanine | Colony Formation Inhibition (%) ([2]; exposure 1 h, 7.36 uM): 41% | Colony Formation Inhibition (%) ([2]; exposure 1 h, 29.43 uM): 87% | Colony Formation Inhibition (%) ([2]; exposure 24 h, 1.47 uM): 87% | Colony Formation Inhibition (%) ([2]; exposure 24 h, .003 uM): 5% | Colony Formation Inhibition (%) ([2]; exposure 24 h, .029 uM): 43% | growth inhibition [5]: approximately 50% | inhibition of growth and colony formation (in words) [3]: effective inhibitors

Aprotinin [reference compound]
% Inhib (growth) ([1]; 1.54 uM): 0% | % Inhib (growth) ([1]; 15.4 uM): 0% | % Inhib (growth) ([1]; .015 uM): 0% | % Inhib (growth) ([1]; .154 uM): 0% | growth inhibitory activity (in words) [1]: Negligible growth inhibition

N-tosylphenylalanine chloromethyl ketone [TPCK, reference compound]
% Inhib (growth) ([1]; 2.84 uM): 42% | % Inhib (growth) ([1]; 28.4 uM): 100% | % Inhib (growth) ([1]; 142 uM): 100% | % Inhib (growth) ([1]; 284 uM): 100% | % Inhib (growth) ([1]; .028 uM): 5% | % Inhib (growth) ([1]; .284 uM): 9% | growth inhibitory activity (in words) [1]: inhibited growth at very high concentrations

B1: Ovomucoid: serine protease inhibitor (protein, UniProt P01005 25-210, looked up)
Ovomucoid: AEVDCSRFPNATDKEGKDVLVCNKDLRPICGTDGVTYTNDCLLCAYSIEFGTNISKEHDGECKETVPMNCSSYANTTSEDGKVMVLCNRAFNPVCGTDGVTYDNECLLCAHKVEQGASVDKRHDGGCRKELAAVSVDCSEYPKPDCTAEDRPLCGSDNKTYGNKCNFCNAVVESNGTLTLSHFGKC
% Inhib (growth) ([1]; 3.57 uM): 0% | % Inhib (growth) ([1]; 17.9 uM): 0% | % Inhib (growth) ([1]; 89.3 uM): 5% | % Inhib (growth) ([1]; .004 uM): 0% | % Inhib (growth) ([1]; .036 uM): 0% | % Inhib (growth) ([1]; .357 uM): 1% | growth inhibitory activity (in words) [1]: Negligible growth inhibition
